Data from patent US4734120A, “Dipeptides containing C-terminal phosphinothricin, a process for their preparation and their use for controlling undesirable plant growth” (Hoechst Aktiengesellschaft, priority 1985, dated 1988).

What was measured:
Test in all cases: Effect on weeds by the post-emergence technique
Assay type in all cases: in vivo
Details in all cases: rated visually after approx. 3-4 weeks
Avena fatua (wild oats) = test system: Avena fatua (wild oats)
Procedure: (§1) The damage caused to weed plants or the toleration by crop plants was rated by means of a code in which the activity is expressed by valuation numbers from 0 to 5. These have the following meanings:
(§2) Seeds or pieces of rhizome of monocotyledonous and dicotyledonous weeds were laid out in sandy loam soil in plastic pots (.phi.=9 l cm), covered with soil and cultivated in a greenhouse under good conditions for growth. The test plants were treated in the three leaf stage three weeks after sowing.
(§3) The compounds according to the invention, formulated as wettable powders, as emulsion concentrates or as aqueous solutions, were sprayed onto the green parts of the plants at various dosages and at a water application rate equivalent to 600 l/hectare, and the effect of the preparations was rated visually in comparison with untreated controls after the test plants had stood for approx. 3-4 weeks in a greenhouse under optimum conditions for growth (temperature 23 plus/minus 1° C.; relative humidity 60-80%). The agents according to the invention display a good herbicidal activity in the post-emergence technique against a broad spectrum of grass-like weeds and weeds of economic importance.

[1] = test system: Setaria lutescens foxtail
Procedure: as §1, §2, §3

[2] = test system: Stellaria media (starwort)
Procedure: as §1, §2, §3

[3] = test system: Echinochloa crusgalli barnyardgrass
Procedure: as §1, §2, §3

[4] = test system: Chrysanthemum segetum corn marigold
Procedure: as §1, §2, §3

[5] = test system: Sinapis alba (white mustard)
Procedure: as §1, §2, §3

CC(C)C(N)C(=O)NC(CCP(C)(=O)O)C(=O)O (racemic) [Example 1, N-Dl-valyl-DL-phosphinothricin]
5 (5=80-100% effect or damage): Herbicidal effect AVF (Avena fatua (wild oats); 2.4 kg of a.i./hectare) | Herbicidal effect SAL ([1]; 2.4 kg of a.i./hectare) | Herbicidal effect STM ([2]; 2.4 kg of a.i./hectare) | Herbicidal effect ECG ([3]; 0.6 kg of a.i./hectare) | Herbicidal effect ECG ([3]; 2.4 kg of a.i./hectare) | Herbicidal effect CRS ([4]; 0.6 kg of a.i./hectare) | Herbicidal effect CRS ([4]; 2.4 kg of a.i./hectare) | Herbicidal effect SIA ([5]; 0.6 kg of a.i./hectare) | Herbicidal effect SIA ([5]; 2.4 kg of a.i./hectare)
4 (4=60-80% effect or damage): Herbicidal effect AVF (Avena fatua (wild oats); 0.6 kg of a.i./hectare) | Herbicidal effect SAL ([1]; 0.6 kg of a.i./hectare) | Herbicidal effect STM ([2]; 0.6 kg of a.i./hectare)

CP(=O)(O)CCC(NC(=O)[C@@H](N)Cc1ccccc1)C(=O)O (mixture of isomers) [Example 2, N-L-phenylalanyl-DL-phosphinothricin]
4 (4=60-80% effect or damage): Herbicidal effect STM ([2]; 0.6 kg of a.i./hectare)
5 (5=80-100% effect or damage): Herbicidal effect AVF (Avena fatua (wild oats); 0.6 kg of a.i./hectare) | Herbicidal effect AVF (Avena fatua (wild oats); 2.4 kg of a.i./hectare) | Herbicidal effect SAL ([1]; 0.6 kg of a.i./hectare) | Herbicidal effect SAL ([1]; 2.4 kg of a.i./hectare) | Herbicidal effect STM ([2]; 2.4 kg of a.i./hectare) | Herbicidal effect ECG ([3]; 0.6 kg of a.i./hectare) | Herbicidal effect ECG ([3]; 2.4 kg of a.i./hectare) | Herbicidal effect CRS ([4]; 0.6 kg of a.i./hectare) | Herbicidal effect CRS ([4]; 2.4 kg of a.i./hectare) | Herbicidal effect SIA ([5]; 0.6 kg of a.i./hectare) | Herbicidal effect SIA ([5]; 2.4 kg of a.i./hectare)

CC(C)C[C@H](N)C(=O)NC(CCP(C)(=O)O)C(=O)O (some centres unmarked) [Example 24]
5 (5=80-100% effect or damage): Herbicidal effect STM ([2]; 2.4 kg of a.i./hectare) | Herbicidal effect ECG ([3]; 2.4 kg of a.i./hectare) | Herbicidal effect CRS ([4]; 2.4 kg of a.i./hectare) | Herbicidal effect SIA ([5]; 2.4 kg of a.i./hectare)

CP(=O)(O)CCC(NC(=O)C(N)c1ccccc1)C(=O)O (centres unmarked) [Example 34]
3 (3=40-60% effect or damage): Herbicidal effect AVF (Avena fatua (wild oats); 0.6 kg of a.i./hectare)
5 (5=80-100% effect or damage): Herbicidal effect SAL ([1]; 2.4 kg of a.i./hectare) | Herbicidal effect STM ([2]; 2.4 kg of a.i./hectare) | Herbicidal effect ECG ([3]; 0.6 kg of a.i./hectare) | Herbicidal effect ECG ([3]; 2.4 kg of a.i./hectare) | Herbicidal effect CRS ([4]; 0.6 kg of a.i./hectare) | Herbicidal effect CRS ([4]; 2.4 kg of a.i./hectare) | Herbicidal effect SIA ([5]; 0.6 kg of a.i./hectare) | Herbicidal effect SIA ([5]; 2.4 kg of a.i./hectare)
4 (4=60-80% effect or damage): Herbicidal effect AVF (Avena fatua (wild oats); 2.4 kg of a.i./hectare) | Herbicidal effect SAL ([1]; 0.6 kg of a.i./hectare) | Herbicidal effect STM ([2]; 0.6 kg of a.i./hectare)

CP(=O)(O)CCC(NC(=O)[C@@H](N)CCCCN)C(=O)O (some centres unmarked) [Example 72]
5 (5=80-100% effect or damage): Herbicidal effect STM ([2]; 2.4 kg of a.i./hectare) | Herbicidal effect ECG ([3]; 2.4 kg of a.i./hectare) | Herbicidal effect CRS ([4]; 2.4 kg of a.i./hectare) | Herbicidal effect SIA ([5]; 2.4 kg of a.i./hectare)
